Test results published in PubChem BioAssay AID2060614 (Molecular Pharmacology Branch, DTP, NCI, 2025).

System: 598228-144-R-J1-PDC complex spheroids, viability
Assay: Anticancer human tumor 598228-144-R-J1-PDC patient-derived serous endometrial adenocarcinoma cell line growth inhibition [CLK]
Conditions: for IC50: curve of first compound; for viability, T/C: stronger effect = lower value; active = viability on the fitted dose curve at most 10% of control; inactive = the rest
Source text: A high-throughput screen of multi-cell type tumor spheroids was designed to identify active combinations of […] and targeted small molecules. Complex spheroids include a stromal component modeled by human endothelial cells (HUVEC) and fibroblasts modeled by human mesenchymal stem cells (MSCs). The concentration ranges selected for each drug and investigational agent were based upon clinically achievable concentrations if the clinical Cmax of the agent was known.
Compounds. The drugs and investigational agents: cirtuvivint (SM08502; NSC835563), CC-671 (NSC850746), vemurafenib (NSC761431), tapotoclax (NSC804041), sotorasib (NSC818433), adagrasib (NSC831453), MRTX-1133 (NSC836407), BAY2416964 (NSC825713), copanlisib (NSC816437), inavolisib (NSC800729), abemaciclib (NSC768073), osimertinib (NSC779217), entinostat (NSC756642), eltanexor (KPT-8602, NSC794443), venetoclax (NSC766270), ceralasertib (NSC777638), bortezomib (NSC756655), olaparib (NSC753686), talazoparib (NSC767125), alisertib (NSC759677), peposertib (NSC802822), gemcitabine (NSC613327), 5-fluorouracil (NSC19893), SN-38 (NSC673596), oxaliplatin (NSC266046), paclitaxel (NSC125973), and doxorubicin (NSC123127), were obtained from the National Cancer Institute (NCI) Developmental Therapeutics Program Chemical Repository. The FDA-approved anticancer drug set is available from the Developmental Therapeutics Program at https://dtp.cancer.gov/organization/dscb/obtaining/available plates.htm. […] The stock solutions were prepared in dimethyl sulfoxide (DMSO, Sigma-Aldrich, St. Louis, MO, cat. D2650), except for the platinum complexes which were prepared in saline (Quality Biological, Gaithersburg, MD, cat. 114-055-101), at 800-fold the tested concentration and stored at -70 degrees C prior to their use. All drugs and investigational agents were tested over a range starting from a high concentration at or near the clinical Cmax and decreasing in half-log increments. If the clinical Cmax for an agent had not been determined, the highest concentration tested was 10 microM.
Cell Culture. All cells were maintained in an incubator at 37 degrees C and 5% CO2 with 95% humidity. The PDC lines were cultured according to standard operating procedures established by the NCI PDMR. Briefly, all PDCs were thawed and cultured in Matrigel-coated flasks prepared with a working solution of 1X Ham's F-12 nutrient mix, without supplementation (Invitrogen, Waltham, MA, cat. 11765054), 100 U/mL penicillin-streptomycin (Invitrogen, cat. 15140122), and 2.5% Matrigel (Corning Inc., Corning, NY, cat. 354248) for the first three passages. The 947758-054-R-J2-PDC line was cultured in 6B/Colon 1A media, which includes advanced DMEM/F-12 (Thermo Fisher Scientific, cat. 12634028), 10 mM HEPES (Thermo Fisher Scientific, cat. 15630080), 1X GlutaMAX supplement (Thermo Fisher Scientific, cat. 35050061), 0.1 mg/mL primocin (InvivoGen, cat. ant-pm-2), 10% defined fetal bovine serum, heat inactivated (HyClone Laboratories Inc., cat. SH30070.03HI), 1.25 mM N-Acetyl-L-cysteine (Sigma-Aldrich, cat. A9165), 10 mM nicotinamide (Sigma-Aldrich, cat. N0636), 1X B-27 supplement (Thermo Fisher Scientific, cat. 17504044), 1X N-2 supplement (Thermo Fisher Scientific, cat. 17502048), and 10 microM Y-27632 dihydrochloride (Tocris Bioscience, cat. 1254). The 876862-298-R-J1-PDC was cultured in 6E media, which includes all 6B/Colon 1A media components plus 50% L-WRN conditioned media (ATCC, cat. CRL-3276), 50 ng/mL recombinant human EGF recombinant protein (hEGF; Thermo Fisher Scientific, cat. PHG0311), 10 ng/mL recombinant human fibroblast growth factor 10 (hGFG-10; PeproTech, cat. 100-26), 1 ng/mL recombinant human fibroblast growth factor 2 (hFGF-2; PeproTech, cat. 100-18B), and 1 µM prostaglandin E2 (PGE2; Tocris, cat. 2296). The 227483-062-R1-J1-PDC line was cultured in Panc media, containing all 6E components except hFGF-2, with the addition of 500 nM SB-431542 (Selleckchem, cat. S1067) and 10 nM gastrin (Tocris, cat. 3006). […]

[1] = second compound 0.0316 µM, first compound 0.0316 µM
[2] = second compound 0.0316 µM, first compound 0.1 µM
[3] = second compound 0.0316 µM, first compound 0.316 µM
[4] = second compound 0.0316 µM, first compound 1 µM
[5] = second compound 0.0316 µM, first compound 3.16 µM
[6] = second compound 0.0316 µM, first compound 10 µM
[7] = second compound 0.1 µM, first compound 0.0316 µM
[8] = second compound 0.1 µM, first compound 0.1 µM
[9] = second compound 0.1 µM, first compound 0.316 µM
[10] = second compound 0.1 µM, first compound 1 µM
[11] = second compound 0.1 µM, first compound 3.16 µM
[12] = second compound 0.1 µM, first compound 10 µM
[13] = second compound 0.316 µM, first compound 0.0316 µM
[14] = second compound 0.316 µM, first compound 0.1 µM
[15] = second compound 0.316 µM, first compound 0.316 µM
[16] = second compound 0.316 µM, first compound 1 µM
[17] = second compound 0.316 µM, first compound 3.16 µM
[18] = second compound 0.316 µM, first compound 10 µM
[19] = second compound 1 µM, first compound 0.0316 µM
[20] = second compound 1 µM, first compound 0.1 µM
[21] = second compound 1 µM, first compound 0.316 µM
[22] = second compound 1 µM, first compound 1 µM
[23] = second compound 1 µM, first compound 3.16 µM
[24] = second compound 1 µM, first compound 10 µM
[25] = second compound 3.16 µM, first compound 0.0316 µM
[26] = second compound 3.16 µM, first compound 0.1 µM
[27] = second compound 3.16 µM, first compound 0.316 µM
[28] = second compound 3.16 µM, first compound 1 µM
[29] = second compound 3.16 µM, first compound 3.16 µM
[30] = second compound 3.16 µM, first compound 10 µM
[31] = second compound 10 µM, first compound 0.0316 µM
[32] = second compound 10 µM, first compound 0.1 µM
[33] = second compound 10 µM, first compound 0.316 µM
[34] = second compound 10 µM, first compound 1 µM
[35] = second compound 10 µM, first compound 3.16 µM
[36] = second compound 10 µM, first compound 10 µM
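Also: spheroids exposed to compounds for seven days before readout.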
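For viability, T/C in this document: 100% = DMSO vehicle control wells.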

CCCS(=O)(=O)Nc1ccc(F)c(C(=O)c2c[nH]c3ncc(-c4ccc(Cl)cc4)cc23)c1F + CN1CCN(c2cc(C(=O)Nc3cc4cc(-c5cnn(C)c5)ccc4cn3)ccn2)CC1
< 0.0316 µM: IC50 (second compound 0.316 µM) | IC50 (second compound 1 µM) | IC50 (second compound 3.16 µM) | IC50 (second compound 10 µM)
> 10 µM: IC50 (second compound 0.0316 µM) | IC50 (second compound 0.1 µM)
active: viability, T/C [19] 1.62% | viability, T/C [20] 1.8% | viability, T/C [21] 2.03% | viability, T/C [22] 1.5% | viability, T/C [23] 2.94% | viability, T/C [24] 4.26% | viability, T/C [25] 2.08% | viability, T/C [26] 6.53% | viability, T/C [27] 1.71% | viability, T/C [28] 2.24% | viability, T/C [29] 5.08% | viability, T/C [30] 7.6% | viability, T/C [31] 1.08% | viability, T/C [32] 0.79% | viability, T/C [33] 1.22% | viability, T/C [34] 1.42% | viability, T/C [35] 3.13% | viability, T/C [36] 6.03%
inactive: viability, T/C [1] 114% | viability, T/C [2] 136% | viability, T/C [3] 119% | viability, T/C [4] 145% | viability, T/C [5] 115% | viability, T/C [6] 71% | viability, T/C [7] 132% | viability, T/C [8] 144% | viability, T/C [9] 111% | viability, T/C [10] 131% | viability, T/C [11] 112% | viability, T/C [12] 72.5% | viability, T/C [13] 20.5% | viability, T/C [14] 23.8% | viability, T/C [15] 19.9% | viability, T/C [16] 15.7% | viability, T/C [17] 17.3% | viability, T/C [18] 15.5%

COC1C=CCC(C)C(C)S(=O)(=O)NC(=O)c2ccc3c(c2)N(CC2CCC21)CC1(CCCc2cc(Cl)ccc21)CO3 (centres undefined) + CNC(=O)c1ccc(Nc2nc(OC3CCCC3)c3c(-c4ccc5nc(C)oc5c4)c[nH]c3n2)c(OC)c1
3.22 µM: IC50 (second compound 0.0316 µM)
2.72 µM: IC50 (second compound 1 µM)
inactive: viability, T/C [1] 111% | viability, T/C [2] 108% | viability, T/C [3] 81.7% | viability, T/C [4] 69.3% | viability, T/C [5] 54.9% | viability, T/C [6] 25.3% | viability, T/C [7] 105% | viability, T/C [8] 96.9% | viability, T/C [9] 61.7% | viability, T/C [10] 70.6% | viability, T/C [11] 59.6% | viability, T/C [12] 22.9% | viability, T/C [13] 102% | viability, T/C [14] 91.1% | viability, T/C [15] 60.5% | viability, T/C [16] 53.9% | viability, T/C [17] 42.5% | viability, T/C [18] 31.5% | viability, T/C [19] 99% | viability, T/C [20] 82.8% | viability, T/C [21] 65.9% | viability, T/C [22] 57.8% | viability, T/C [23] 55.5% | viability, T/C [24] 37.2% | viability, T/C [25] 92.4% | viability, T/C [26] 78.8% | viability, T/C [27] 67.3% | viability, T/C [28] 54.9% | viability, T/C [29] 55.3% | viability, T/C [30] 25.1% | viability, T/C [31] 86.5% | viability, T/C [32] 83.8% | viability, T/C [33] 67.2% | viability, T/C [34] 51.9% | viability, T/C [35] 58.3% | viability, T/C [36] 35.4%
2.59 µM: IC50 (second compound 0.1 µM)
1.13 µM: IC50 (second compound 0.316 µM)
2.01 µM: IC50 (second compound 3.16 µM)
2.81 µM: IC50 (second compound 10 µM)
